Reference: patent US20030119792A1, “Method of inhibiting the production and/or effects of intestinal pro-inflammatory cytokines, prostaglandins and others” (priority 2001, published 2003)
Entries after “also recorded” stand apart in the source; their conditions may differ. Marks after values point to notes of the source that are not given here.

Assays:
[1] = tested on: TNBS-induced rat colitis; conditions: cited from earlier work
[2] = tested on: IL-8 production in HT-29 cells; assay: LPS-stimulated IL-8 production in HT-29 cell cultures; type: cell-based, human; conditions: for effect on IL-8 basal production: no LPS
Protocol: The human colon adenocarcinoma cell line HT-29, obtained from the Cell Culture Unit of the University of Granada (Granada, Spain) (ECACC reference number: 91072201), is used as a model of intestinal epithelium to test the ability of the different compounds to inhibit the production/release of IL-8. Cells are grown in Dulbecco's modified Eagle's medium supplemented with 10% fetal bovine serum (Boehringer Mannheim, Mannheim, Germany), 2 mM L-glutamine, 50,000 u l^−1 penicillin/streptomycin and 2.5 mg ml^−1 amphotericin B, in a humidified 5% CO2 atmosphere at 37° C. Cells are seeded into 12-well plates and grown to confluence. […] After 20 h, supernatants are collected, centrifuiged to remove debris at 7,000 g for 10 min and stored at −80° C. for the determination of IL-8 levels by enzyme-linked immunosorbent assay (Biosource International, Nivilles, Belgium).

[3] = tested on: IL-1β production in THP-1 cells; assay: LPS and PMA-stimulated IL-1β production in THP-1 cells; type: cell-based, human; conditions: for effect on stimulated IL-1β production (in words): 10^−7 to 10^−4 M
Protocol: The human monocytic cell line THP-1 is obtained from the Cell Culture Unit of the University of Granada (Granada, Spain) (ECACC reference number: 88081201) and used to assay the effects of the different compounds on IL-1 production. These cells are cultured in RPMI 1640 (Life Technologies, Paisley, UK) supplemented with 10% fetal bovine serum (Life Technologies), 2 mM glutamine and 0.05 mM mercaptoethanol in a humidified 5% CO2 atmosphere at 37° C. Cells are seeded onto 24-well plates at a density of 2×10^6 cells ml^−1 and pre-incubated during 30 min with the different test compounds, at concentrations ranging from 10^−7 to 10^−4 M, and then stimulated with 1 μg ml^−1 LPS and 1 μM phorbol 12-myristate 13-acetate (PMA). After 20 h, plates are centrifuged at 1,000 g for 10 min and supematants are collected and stored at −80° C. for the determination of IL-1 levels by EIA using a kit system (Amersham Pharmacia Biotech, Buckinghamshire, UK).

[4] = tested on: TNF-α production in U-937 cells; assay: LPS-stimulated TNF-α production in PMA-differentiated U-937 cells; type: cell-based, human; conditions: for effect on TNF-α production (in words): differentiated U-937 cells, LPS 4 h, 10^−6 to 10^−4 M
Protocol: The cells are cultured in RPMI 1640 (Life Technologies) supplemented with 10% fetal bovine serum and 2 mM glutamine in a humidified 5% CO2 atmosphere at 37° C. Cell concentration is adjusted to 0.5×10^6 cells ml, and monocytic differentiation is induced by incubation with 20 ng ml^−1 PMA for 24 h. After that, cells are harvested, centrifuged at 200 g for 5 min and plated onto 48-well plates at 210^6 cells ml^−1, pre-incubated for 30 min with the test compounds at concentrations ranging from 10^−6 to 10^−4 M, and stimulated with 0.1 μg ml^−1 LPS. After 4 h, plates are centrifuged at 1,000 g for 10 min and supernatants are collected and stored at −80° C. for the quantification of the TNF-α released in the culture medium by EIA using a commercial kit (R&D, Minneapolis, Minn., USA).

[5] = tested on: HT-29, THP-1 and U-937 cells; conditions: any assayed concentration, any cell types used
Protocol: Test compounds are prepared at 600 μM stock solution in PBS and further working dilutions are performed in culture medium. Percentage inhibition of cytokine production is calculated for every drug concentration.
The test compounds are prepared at 600 μM stock solution in PBS and further working dilutions are performed in culture medium. Percentage inhibition of cytokine production is calculated for every drug concentration.

[6] = tested on: TNF-α production in mononuclear cells; assay: TNF-α production in mononuclear cells (FIG. 8); type: cell-based; conditions: 10 uM
Source text: FIG. 8. Effects of UR-12746-S in the production of TNF-α in mononuclear cells.

[7] = tested on: reactivated TNBS colitis; assay: Reactivated TNBS colitis in rats: macroscopic colonic damage; type: in vivo, rat
Protocol: (§1) Colitis is induced by the method originally described by Morris et al. (1989), with minor modifications. Female Wistar rats (180-220 g) obtained from the Laboratory Animal Service of the University of Granada (Granada, Spain) are randomly distributed in several experimental groups. Animals are housed in makrolon cages (3-4 rats per cage) and maintained in an air-conditioned animal room with a 12 h light-dark cycle, and they are provided with free access to tap water and food (Panlab A.04). Animals are fasted overnight and anaesthetized with halothane. Under anesthesia, animals received 10 mg of TNBS dissolved in 0.25 ml of 50% ethanol (v v^−1) by means of a Teflon cannula inserted 8 cm through the anus. During and after TNBS administration rats are kept in a head-down position until they recovered from anesthesia, and then returned to their cage. […] Two additional groups are also included for reference: a non colitic group receiving intracolonically 0.25 ml of phosphate buffer saline (pH=7.4) and another colitic group which received only the first dose of TNBS (control group without relapse); both groups are orally administered with vehicle.
(§2) Animals are sacrificed with an overdose of halothane, and the entire colon is removed. The colonic segments are placed on an ice-cold plate, cleaned of fat and mesentery, and blotted on filter paper. Each specimen is weighed and its length measured under a constant load (2 g). […] The colon is subsequently divided longitudinally in 3 pieces for biochemical determinations. […] MPO activity is measured according to the technique described by Krawisz et al. (1984); the results are expressed as MPO units per gram of wet tissue and one unit of MPO activity is defined as that degrading 1 μmol min^−1 of hydrogen peroxide at 25° C. Samples for the determination of TNF-α and IL-1 synthesis are immediately weighed, minced on an ice-cold plate and suspended in a tube with 10 mM sodium phosphate buffer, pH=7.4, 1:5 w v^−1. The tubes are placed in a shaking water bath at 37° C. for 20 min and centrifuged at 9000 g for 30 s at 4° C. The supernatants are frozen at −80° C. until assay and cytokines are quantified by enzyme-linked immunosorbent assay (Amersham Pharmacia Biotech). All biochemical measurements are completed within one week from the time of sample collection and are performed in duplicate.

[8] = tested on: colonic myeloperoxidase (MPO) activity; assay: Reactivated TNBS colitis in rats: colonic MPO activity; type: in vivo, rat
Protocol: as §1
as §2, with “Samples for the determination of TNF-α and IL-1 synthesis are immediately weighed, minced on an ice-cold plate and suspended in a tube with 10 mM sodium phosphate buffer, pH=7.4, 1:5 w v^−1. The tubes are placed in a shaking water bath at 37° C. for 20 min and centrifuged at 9000 g for 30 s at 4° C.” left out, “All biochemical measurements are completed within one week from the time of sample collection and are performed in duplicate.” left out

[9] = tested on: colonic IL-1β levels; assay: Reactivated TNBS colitis in rats: colonic IL-1β levels; type: in vivo, rat; conditions: FIG. 5
Protocol: (§3) Colitis is induced by the method originally described by Morris et al. (1989), with minor modifications. Female Wistar rats (180-220 g) obtained from the Laboratory Animal Service of the University of Granada (Granada, Spain) are randomly distributed in several experimental groups. Animals are housed in makrolon cages (3-4 rats per cage) and maintained in an air-conditioned animal room with a 12 h light-dark cycle, and they are provided with free access to tap water and food (Panlab A.04). Animals are fasted overnight and anaesthetized with halothane. Under anesthesia, animals received 10 mg of TNBS dissolved in 0.25 ml of 50% ethanol (v v^−1) by means of a Teflon cannula inserted 8 cm through the anus. […]
(§4) Animals are sacrificed with an overdose of halothane, and the entire colon is removed. […] Each specimen is weighed and its length measured under a constant load (2 g). […] MPO activity is measured according to the technique described by Krawisz et al. (1984); the results are expressed as MPO units per gram of wet tissue and one unit of MPO activity is defined as that degrading 1 μmol min^−1 of hydrogen peroxide at 25° C. […] The supernatants are frozen at −80° C. until assay and cytokines are quantified by enzyme-linked immunosorbent assay (Amersham Pharmacia Biotech). […]

[10] = tested on: colonic TNF-α levels; assay: Reactivated TNBS colitis in rats: colonic TNF-α levels; type: in vivo, rat; conditions: FIG. 6
Protocol: as §3, §4

[11] = 25 mg kg^−1 oral daily, 3 wk (after second TNBS)
[12] = 25 mg kg^−1 oral daily, 4 wk (after second TNBS)
[13] = 50 mg kg^−1 oral daily, 3 wk (after second TNBS)
[14] = 50 mg kg^−1 oral daily, 4 wk (after second TNBS)
[15] = two weeks after the initial colonic challenge

Cc1nc2cnccc2n1CC1CCN(C(=O)C=C(c2ccccc2)c2ccc(/N=N\c3ccc(O)c(C(=O)O)c3)cc2)CC1 [UR-12746 free acid, (Z)-2-hydroxy-5-[[4-[3-[4-[(2-methyl-1H-imidazo[4,5-c]pyridin-1-yl)methyl]-1-piperidinyl]-3-oxo-1-phenyl-1-propenyl]phenyl]azo] benzoic acid]
IL-1β production ([1]; 50-100 mg/kg, 4 week time span): reduce IL-1β production | Platelet Activating Factor (PAF) activity ([1]; 50-100 mg/kg, 4 week time span): inhibit Platelet Activating Factor (PAF) activity | colonic myeloperoxidase (MPO) activity ([1]; 50-100 mg/kg, 4 week time span): reduce colonic myeloperoxidase (MPO) activity | LTB4 production ([1]; only at 100 mg/kg and only after 3 and 4 weeks of administration): reduce LTB4 production | colonic damage ([1]; only at the 100 mg/kg dosage): significant reduction in colonic damage

(Z)-1-[4-(3-aminophenyl)-1-oxo-3-phenyl-2-propenyl]-4-[(2-methyl-lH-imidazo[4,5-c]pyridin-1-yl)methyl] piperidine [UR-12715]
effect on IL-8 basal production [2]: no significant effect | effect on stimulated IL-1β production (in words) [3]: inhibited; also recorded: inhibits the stimulated cytokine production in a concentration-dependent way | effect on TNF-α production (in words) [4]: inhibited; also recorded: concentration-dependent inhibitory effect

Cc1nc2cnccc2n1CC1CCN(C(=O)C=C(c2ccccc2)c2ccc(N=Nc3ccc(O)c(C(=O)O)c3)cc2)CC1 [trans-1-[[1-[3-[4-(4-hydroxy-3-carboxyphenylazo)phenyl]-3-phenylpropenoyl]-4-piperidyl]methyl]-1H-2-methylimidazole [4,5-c] pyridine]
viability (trypan blue exclusion) [5]: higher than 95%

Nc1ccc(O)c(C(=O)O)c1 [5-ASA, 5-aminosalicylic acid]
inhibition at 1 µM ([2]; Homo sapiens, LPS, achieved at 10^−6 M, not higher up to 10^−4 M, read-out: maximum inhibitory effect on LPS-stimulated IL-8 production): 30 to 40% | effect on IL-8 basal production [2]: no significant effect | effect on stimulated IL-1β production (in words) [3]: only a weak effect; also recorded: weak inhibitory activity | inhibition of stimulated IL-1β production ([3]; the different concentrations assayed): 10-20% | effect on TNF-α production (in words) [4]: devoid of any significant effect; also recorded: inactive

Cc1nc2cnccc2n1CC1CCN(C(=O)C=C(c2ccccc2)c2ccc(/N=N\c3ccc(O)c(C(=O)[O-])c3)cc2)CC1.[Na+] [UR-12746-S, (Z)-2-hydroxy-5-[[4-[3-[4-[(2-methyl-1H-imidazo[4,5-c]pyridin-1-yl)methyl]-1-piperidinyl] -3-oxo-1-phenyl-1-propenyl]phenyl]azo] benzoic acid sodium salt]
potency in inhibiting TNF-α production compared to the individual components, a combination of the components and sulfasalazine ([4]; U-937 cells, FIG. 7): more potent | inhibition of TNF-α production compared with UR-12715 or a combination of UR-12715 and 5-ASA [6]: to a greater extent | colonic weight/length ratio, mean ± s.e.mean ([7]; 25 mg kg^−1 oral daily, 1 wk): 146.6 ± 8.1 mg/cm | damage score (0-10), median (range) ([7]; 25 mg kg^−1 oral daily, 1 wk): 5.5 (4-6) | colonic weight/length ratio, mean ± s.e.mean ([7]; 25 mg kg^−1 oral daily, 2 wk): 143.6 ± 4.9 mg/cm | damage score (0-10), median (range) ([7]; 25 mg kg^−1 oral daily, 2 wk): 5 (4-5) | colonic weight/length ratio, mean ± s.e.mean [7, 11]: 150.5 ± 4.3 mg/cm | damage score (0-10), median (range) [7, 11]: 5 (4-6) | colonic weight/length ratio, mean ± s.e.mean [7, 12]: 143.2 mg/cm | damage score (0-10), median (range) [7, 12]: 5 (2-6) | colonic weight/length ratio, mean ± s.e.mean ([7]; 50 mg kg^−1 oral daily, 1 wk): 137.0 ± 8.4 mg/cm | damage score (0-10), median (range) ([7]; 50 mg kg^−1 oral daily, 1 wk): 4.5 (4-6) | colonic weight/length ratio, mean ± s.e.mean ([7]; 50 mg kg^−1 oral daily, 2 wk): 120.0 ± 5.9 mg/cm | damage score (0-10), median (range) ([7]; 50 mg kg^−1 oral daily, 2 wk): 4 (3-5) | colonic weight/length ratio, mean ± s.e.mean [7, 13]: 142.3 ± 3.1 mg/cm | damage score (0-10), median (range) [7, 13]: 4 (3-5)* | colonic weight/length ratio, mean ± s.e.mean [7, 14]: 110.8 mg/cm | damage score (0-10), median (range) [7, 14]: 3 (2-4)* | colonic macroscopic damage score and colonic weight/length ratio after reactivation, compared with control colitic animals without relapse ([7]; after second TNBS dose): no statistical differences | colonic MPO activity after colitis relapse ([8]; 25 and 50 mg kg^−1, after second TNBS, FIG. 4): prevent the increased activity | colonic MPO activity ([8]; 25 and 50 mg kg^−1, first two weeks after the initial TNBS, FIG. 4): reduction in colonic MPO activity | effect in reducing MPO activity in comparison with sulphasalazine ([8]; same doses, same experimental conditions): higher effect | colonic IL-1β levels after second administration of TNBS ([9]; after second TNBS): effectively prevents the increase in IL-1β levels | colonic IL-1β levels [9, 15]: decrease colonic IL-1β levels significantly | colonic TNF-α levels after second administration of TNBS ([10]; 50 mg kg^−1, after second TNBS): significantly reduced | colonic TNF-α levels [10, 15]: without showing any significant effect
